The target of one assay is URAT1 (Homo sapiens (Human), UniProt Q96S37). In words: URAT1 in vitro inhibition activity, Method A (14C-uric acid uptake in HEK293-URAT-4 cells). To be noted: 50 μM 14C-uric acid, 10 min uptake. The format is cell-based. As for the experimental part:
The potency of the compounds of formula (I) as inhibitors of the URAT1 was determined as follow.
Cell Lines were generated in WuXi AppTec (HEK293-URAT-4: Stable cell line of HEK293 which was transfected with pcDNA3.1-URAT (Human SLC22A12 cDNA Clone, Abgent-DC07943). HEK293-PCDNA-5: Negative control cell of HEK293 which was transfected with pcDNA3.1 empty vector.
Cells were seeded onto 24-well plates at the density of 2.0×10^5 cells per well. The cells were incubated at 37° C., 5% CO2 overnight. After approximately 24 hours culture, cells were used for uptake experiments. The culture medium were removed from the wells and the cells were incubated in 0.4 ml/well of Hank's balanced salt solution (HBSS) for 10 min. HBSS was replaced with 0.18 ml/well fresh HBSS. Compounds were 5 folds serial diluted in DMSO, and then 25 folds diluted in HBSS. Compounds diluted with HBSS (10 μl) were added to relevant well of cell plates, and plates were incubated at 37° C., 5% CO2 for 15 min. The final concentration of DMSO in the assay was 0.2%. 10 μl HBSS containing radioactively labeled Urate (^14C-uric acid) was added to each well. The final concentration of ^14C-uric acid in the assay medium was 50 μM. After 10 min, the assay medium was immediately removed. The cells were washed quickly with 0.5 ml pre-chilled HBSS twice. 0.1 M NaOH (0.4 ml) was added to lyse the cells for at least 20 min. The cell lysate was collected to a scintillation vial, and scintillant (4 ml) was added and the radioactivity was counted by a liquid scintillation counter. Inhibiton % data were calculated using the formula
[formula] CPD: Signal from a well containing a test compound HC (high control): Average of signals from HEK293-URAT-4 cells LC (low control): Average of signals from HEK293-PCDNA-5.

For assay [1], the system named is potassium oxonate-induced hyperuricemia in rats. In words: Effect on potassium oxonate-induced hyperuricemia in rats (serum uric acid). The format is in vivo, rat. Conditions: male SD rats, 5 mg/kg oral; for serum uric acid levels, time after dosing 0.5 h: 0.5 h after dosing; for serum uric acid levels, time after dosing 1 h: 1 h after dosing; for serum uric acid levels, time after dosing 2 h: 2 h after dosing; for serum uric acid levels, time after dosing 3 h: 3 h after dosing; for serum uric acid levels, time after dosing 4 h: 4 h after dosing. Here is the method:
Healthy male SD rats, weighing 250±20 g, were used. In the experiment, except for 10 rats as normal control group were orally administered with distilled water, the others were orally administered with yeast extract (20 g/kg, qd×5 days). One hour after last administration, all the rats were intraperitoneal injection with 250 mg/kg potassium oxonate while normal control group was treated with an equal volume of 0.5% CMC-Na (injection volume of 2 ml/kg). After one hour, rats were anesthetized with isoflurane and the serum uric acid was determined by uric acid test strip. All the rats were divided into groups by uric acid. The model control group and experimental groups was given orally administration 0.5% CMC-Na or compounds with a dose of 10 ml/kg-bw. Phosphotungstic acid precipitation method was used to detect serum uric acids in inner canthus blood at 0.5, 1, 2, 3, 4 h after administration, respectively. Substantially, observing the effects of compounds on serum uric acids levels and calculating each of groups' AUC and the inhibition of uric acid increased area by the equation as follows: […]
As shown in the equation, AUC0 indicated the AUC of model control group, AUC1 indicated the AUC of therapy group, AUC2 indicated the AUC of normal control group.

The structures appear in SMILES notation.

URAT1, sequence (Q96S37 whole entry): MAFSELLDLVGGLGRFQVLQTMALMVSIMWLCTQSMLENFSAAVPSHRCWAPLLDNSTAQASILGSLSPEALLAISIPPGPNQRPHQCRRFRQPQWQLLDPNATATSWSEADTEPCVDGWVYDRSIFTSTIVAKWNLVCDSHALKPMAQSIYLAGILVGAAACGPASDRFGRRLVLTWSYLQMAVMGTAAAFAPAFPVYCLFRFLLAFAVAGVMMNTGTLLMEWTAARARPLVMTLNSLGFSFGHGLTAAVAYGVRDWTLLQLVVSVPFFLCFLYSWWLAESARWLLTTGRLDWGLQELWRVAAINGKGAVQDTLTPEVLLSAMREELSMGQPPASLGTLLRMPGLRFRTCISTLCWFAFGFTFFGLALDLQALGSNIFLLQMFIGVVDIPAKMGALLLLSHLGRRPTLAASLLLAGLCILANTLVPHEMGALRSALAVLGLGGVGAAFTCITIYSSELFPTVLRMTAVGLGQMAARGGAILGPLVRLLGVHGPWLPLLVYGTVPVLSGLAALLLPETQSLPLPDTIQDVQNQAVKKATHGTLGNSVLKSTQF

One may read the IC50 as the concentration that inhibits the measured activity by half. Higher therefore signals weaker potency in that assay. As for `Cc1cc2c(C#N)ccc(-c3cnccc3SC3(C(=O)O)CCC3)n2c1` [Example 5, 1-((3-(8-cyano-2-methylindolizin-5-yl)pyridin-4-yl)thio)cyclobutane-1-carboxylic acid], 110 nM corresponded to half-maximal inhibition at URAT1 (IC50).
In turn, `N#Cc1ccc(-c2cnccc2SC2(C(=O)O)CCC2)n2cccc12` [Example 1, 1-((3-(8-Cyanoindolizin-5-yl)pyridin-4-yl)thio)cyclobutane-1-carboxylic acid] gave a 50% inhibitory concentration (IC50) on URAT1 of 30 nM. Also, in assay [1], the “serum uric acid levels, time after dosing 0.5 h” value is 492.8 ± 82.4 µmol/L; the “serum uric acid levels, time after dosing 1 h” value amounted to 506.0 ± 88.5 µmol/L; the “serum uric acid levels, time after dosing 2 h” value is 407.7 ± 100.7 µmol/L; the “serum uric acid levels, time after dosing 3 h” value turned out to be 343.2 ± 84.3 µmol/L. Besides, the “serum uric acid levels, time after dosing 4 h” value in assay [1] came out at 289.8 ± 77.8 µmol/L.
Compound `N#Cc1ccc(-c2cnccc2SC2(C(=O)O)CCC2)n2cc(C(F)(F)F)cc12` [Example 7, 1-((3-(8-cyano-2-(trifluoromethyl)indolizin-5-yl)pyridin-4-yl)thio)cyclobutane-1-carboxylic acid] registered a concentration for half-maximal inhibition (IC50) against URAT1 of 44 nM. In addition, in assay [1], the “serum uric acid levels, time after dosing 0.5 h” value was 485.3 ± 79.3 µmol/L; the “serum uric acid levels, time after dosing 1 h” value stood at 510.0 ± 103.7 µmol/L; the “serum uric acid levels, time after dosing 2 h” value was determined as 460.6 ± 87.4 µmol/L; the “serum uric acid levels, time after dosing 3 h” value is 381.3 ± 84.3 µmol/L. Moreover, the “serum uric acid levels, time after dosing 4 h” value in assay [1] is 307.9 ± 71.0 µmol/L.
In the case of `CC(C)(Sc1ccncc1-c1ccc(C#N)c2cccn12)C(=O)O` [Example 2, 2-((3-(8-cyanoindolizin-5-yl)pyridin-4-yl)thio)-2-methylpropanoic acid], the IC50 against URAT1 was 66 nM.
As to `CC(C)(Sc1ccncc1-c1ccc(C#N)c2c(Cl)ccn12)C(=O)O` [Example 4, 2-((3-(1-chloro-8-cyanoindolizin-5-yl)pyridin-4-yl)thio)-2-methylpropanoic acid], the IC50 on URAT1 was 68 nM.
Same read-out and setting: next, `CC(C)(Sc1ccncc1-c1ccc(C#N)c2ccc(Cl)n12)C(=O)O` [Example 3, 2-((3-(3-chloro-8-cyanoindolizin-5-yl)pyridin-4-yl)thio)-2-methylpropanoic acid]: 282 nM.

These data come from US10894038B2, “Indolizine derivatives, composition and methods of use” (Shanghai Fochon Pharmaceutical Co., Ltd., priority 2015, dated 2021).
